Converted amounts (≈) assume the structure as drawn.
How the values were obtained:
Assay in all cases: ≥ marks a high value that may be exact or a test limit, other limits are often not marked, values filed in µg/mL are converted to µM
[1] = system: Psychrobacter faecalis X29
[2] = system: Staphylococcus aureus ATCC 2592
[3] = system: Candida albicans ATCC 2002
[4] = system: Serratia rubidaea X01
[5] = system: Rhodococcus rhodochrous X15
[6] = system: Bacillus licheniformis X39
[7] = system: Staphylococcus carnosus KHS
[8] = system: Bordetella bronchiseptica CUN 11844-99
[9] = system: Escherichia coli ATCC 23716
[10] = system: Acinetobacter baumannii ATCC 19606
[11] = system: Staphylococcus aureus SA113
[12] = system: Staphylococcus aureus
[13] = system: Staphylococcus aureus ΔmprF
[14] = system: Brucella abortus 9.49 (per-)
[15] = system: Pseudomonas aeruginosa CUN 4158-02
[16] = system: Staphylococcus aureus ATCC 43300
[17] = system: Yersinia pestis KIM pYV
[18] = system: Staphylococcus aureus ΔmprFpRBsyn
[19] = system: Escherichia coli ATCC 25922
[20] = system: Escherichia coli ML-35
[21] = system: Listeria monocytogenes EGD
[22] = system: Candida albicans 820
[23] = system: Staphylococcus aureus ATCC 25923
[24] = system: Pseudomonas aeruginosa 910
[25] = system: Staphylococcus epidermidis
[26] = system: Candida albicans
[27] = system: Pseudomonas aeruginosa 919
[28] = system: Pseudomonas aeruginosa H103
[29] = system: Salmonella enterica serovar Typhimurium
[30] = system: Enterococcus faecalis ATCC 29212
[31] = system: Escherichia coli UB1005
[32] = system: Pseudomonas aeruginosa PAO1
[33] = system: Pseudomonas aeruginosa 253
[34] = system: Enterococcus faecium
[35] = system: Escherichia coli ML-35p
[36] = system: Enterococcus faecalis CDC 21
[37] = system: Staphylococcus aureus 30371
[38] = system: Staphylococcus aureus 28841
[39] = system: Salmonella enterica subsp. enterica serovar Typhimurium ATCC 14028s
[40] = system: Salmonella enterica serovar typhimurium MS7953s
[41] = system: Staphylococcus aureus 930918-3
[42] = system: Enterococcus faecium 94-132
[43] = system: Pseudomonas aeruginosa MR2123
[44] = system: Escherichia coli BAS 849
[45] = system: Escherichia coli mcr106
[46] = system: Pseudomonas aeruginosa SBI-N
[47] = system: Pseudomonas aeruginosa MR3007
[48] = system: Klebsiella pneumoniae

CC[C@H](C)[C@H](NC(=O)[C@H](CCC(=O)O)NC(=O)[C@H](CCCCN)NC(=O)[C@H](C)NC(=O)[C@H](C)NC(=O)[C@@H](NC(=O)[C@H](CCCCN)NC(=O)CNC(=O)[C@H](Cc1ccccc1)NC(=O)[C@H](CC(=O)O)NC(=O)[C@H](CCCCN)NC(=O)[C@H](CC(C)C)NC(=O)[C@@H](NC(=O)[C@H](CO)NC(=O)[C@H](CCSC)NC(=O)[C@H](CC(C)C)NC(=O)CN)[C@@H](C)O)[C@@H](C)O)C(=O)N[C@@H](C)C(=O)N[C@@H](CCC(N)=O)C(=O)N[C@@H](CO)C(=O)N[C@@H](CC(C)C)C(=O)N[C@@H](CC(C)C)C(=O)N[C@@H](CO)C(=O)N[C@H](C(=O)N[C@@H](C)C(=O)N[C@@H](CO)C(=O)N[C@H]1CSSC[C@@H](C(=O)O)NC(=O)[C@H]([C@@H](C)O)NC(=O)[C@H](CCCCN)NC(=O)[C@H](C)NC(=O)[C@H](CC(C)C)NC(=O)[C@H](CCCCN)NC1=O)[C@@H](C)O [GLMSTLKDFGKTAAKEIAQSLLSTASCKLAKTC] was tested, and the MIC [1] was 1.84 µM (≈ 6.3 µg/mL), the MIC [2] was 3.66 µM (≈ 12.5 µg/mL) and the MIC [3] was at least 58.5 µM. It also gave an MIC [4] of 29.3 µM (≈ 99.9 µg/mL), an MIC [5] of 0.468 µM (≈ 1.6 µg/mL) and an MIC [6] of 14.6 µM (≈ 50 µg/mL). It also gave an MIC [7] of 1.84 µM (≈ 6.3 µg/mL).
In the case of CC[C@H](C)[C@H](NC(=O)[C@H](CCCN=C(N)N)NC(=O)[C@H](CCCCN)NC(=O)[C@H](CO)NC(=O)[C@@H](NC(=O)[C@@H](N)CCCCN)[C@@H](C)CC)C(=O)N[C@@H](CC(C)C)C(=O)N[C@H](C(=O)NCC(=O)N[C@@H](CCCCN)C(=O)N[C@@H](CCCCN)C(N)=O)[C@@H](C)O [KISKRILTGKK], the MIC [8] is reported as at least 201 µM, the MIC [9] is reported as at least 201 µM and the MIC [10] is reported as over 201 µM. The MIC [11] was at least 201 µM, the MIC [12] was over 201 µM and the MIC [13] was at least 201 µM. The MIC [14] was at least 201 µM, the MIC [15] was at least 201 µM and the MIC [16] was over 201 µM. It also gave an MIC [17] of at least 201 µM, an MIC [18] of at least 201 µM and an MIC [19] of over 201 µM.
For CC[C@H](C)[C@@H]1NC(=O)[C@@H]2CSSC[C@H](NC(=O)[C@H](Cc3ccc(O)cc3)NC(=O)[C@@H](NC(=O)[C@H](CC(C)C)NC(=O)[C@H](CCCNC(=N)N)NC(=O)CNC(=O)CNC(=O)[C@@H](N)CCCNC(=N)N)CSSC[C@@H](C(=O)N[C@H](C(N)=O)C(C)C)NC1=O)C(=O)N[C@@H](CCCNC(=N)N)C(=O)N[C@@H](CCCNC(=N)N)C(=O)N[C@@H](CCCNC(=N)N)C(=O)N[C@@H](Cc1ccccc1)C(=O)N2 [RGGRLCYCRRRFCICV], the MIC [20] was 12.7 µM (≈ 24.9 µg/mL), the MIC [21] was 12.7 µM (≈ 24.9 µg/mL) and the MIC [22] was 12.7 µM (≈ 24.9 µg/mL).
In the case of CC[C@H](C)[C@H](NC(=O)[C@H](CCCN=C(N)N)NC(=O)[C@H](C)NC(=O)[C@H](CC(C)C)NC(=O)[C@@H](N)CCCN=C(N)N)C(=O)N[C@H](C(=O)N[C@H](C(=O)N[C@H](C(=O)N[C@@H](CCCN=C(N)N)C(=O)N[C@H](C(=O)N[C@@H](CCCN=C(N)N)C(=O)N[C@@H](CCCN=C(N)N)C(N)=O)C(C)C)[C@@H](C)CC)C(C)C)C(C)C [RLARIVVIRVRR], the MIC [23] is reported as 5.31 µM (≈ 8 µg/mL), the MIC [24] is reported as at least 64 µM and the MIC [25] is reported as 1.33 µM (≈ 2 µg/mL). The MIC [26] was 5.31 µM (≈ 8 µg/mL), the MIC [27] was at least 32 µM and the MIC [28] was 10.6 µM (≈ 16 µg/mL). The MIC [29] was 5.31 µM (≈ 8 µg/mL), the MIC [30] was 5.31 µM (≈ 8 µg/mL) and the MIC [31] was 5.31 µM (≈ 8 µg/mL). It also gave an MIC [32] of 16 µM (≈ 24.1 µg/mL) and an MIC [33] of at least 64 µM.
Work on CC[C@H](C)[C@H](NC(=O)[C@H](CCCCN)NC(=O)CNC(=O)[C@H](CC(C)C)NC(=O)[C@H](Cc1ccccc1)NC(=O)[C@H](CCC(N)=O)NC(=O)[C@H](Cc1ccccc1)NC(=O)[C@@H](N)C(C)C)C(=O)N[C@H](C(=O)N[C@@H](CCCCN)C(=O)N[C@@H](CCCCN)C(=O)N[C@H](C(=O)NCC(=O)N[C@@H](CC(N)=O)C(=O)N[C@@H](Cc1ccccc1)C(=O)N[C@H](C(=O)N[C@@H](CCCCN)C(=O)NCC(=O)N[C@@H](Cc1ccccc1)C(=O)N[C@@H](CO)C(=O)N[C@@H](CCCCN)C(=O)N[C@H](C(=O)N[C@@H](Cc1ccccc1)C(=O)O)C(C)C)C(C)C)C(C)C)[C@@H](C)CC [VFQFLGKIIKKVGNFVKGFSKVF] yielded an MIC [34] of 0.19 µM (≈ 0.5 µg/mL), an MIC [35] of 0.494 µM (≈ 1.3 µg/mL) and an MIC [36] of 0.988 µM (≈ 2.6 µg/mL). The MIC [21] was 0.152 µM (≈ 0.4 µg/mL), the MIC [37] was 2.2 µM (≈ 5.8 µg/mL) and the MIC [38] was 0.95 µM (≈ 2.5 µg/mL). For the same compound, the MIC [39] was 0.57 µM (≈ 1.5 µg/mL), the MIC [40] was 0.494 µM (≈ 1.3 µg/mL) and the MIC [41] was 1.48 µM (≈ 3.9 µg/mL). For the same compound, the MIC [42] was 0.114 µM (≈ 0.3 µg/mL), the MIC [43] was 0.266 µM (≈ 0.7 µg/mL) and the MIC [44] was 0.266 µM (≈ 0.7 µg/mL). For the same compound, the MIC [45] was 0.266 µM (≈ 0.7 µg/mL), the MIC [46] was 0.342 µM (≈ 0.9 µg/mL) and the MIC [47] was 0.342 µM (≈ 0.9 µg/mL). It also gave an MIC [48] of 1.06 µM (≈ 2.8 µg/mL).

— DBAASP
